Molecular target: human CTPS1 (Homo sapiens (Human), UniProt P17812)
Assay: hCTPS1 biochemical assay (ADP-Glo)
Conditions: hCTPS1 25 nM, ATP 120 uM, UTP 160 uM, GTP 60 uM, L-Glutamine 100 uM, 25 degrees C

human CTPS1, sequence (P17812 whole entry): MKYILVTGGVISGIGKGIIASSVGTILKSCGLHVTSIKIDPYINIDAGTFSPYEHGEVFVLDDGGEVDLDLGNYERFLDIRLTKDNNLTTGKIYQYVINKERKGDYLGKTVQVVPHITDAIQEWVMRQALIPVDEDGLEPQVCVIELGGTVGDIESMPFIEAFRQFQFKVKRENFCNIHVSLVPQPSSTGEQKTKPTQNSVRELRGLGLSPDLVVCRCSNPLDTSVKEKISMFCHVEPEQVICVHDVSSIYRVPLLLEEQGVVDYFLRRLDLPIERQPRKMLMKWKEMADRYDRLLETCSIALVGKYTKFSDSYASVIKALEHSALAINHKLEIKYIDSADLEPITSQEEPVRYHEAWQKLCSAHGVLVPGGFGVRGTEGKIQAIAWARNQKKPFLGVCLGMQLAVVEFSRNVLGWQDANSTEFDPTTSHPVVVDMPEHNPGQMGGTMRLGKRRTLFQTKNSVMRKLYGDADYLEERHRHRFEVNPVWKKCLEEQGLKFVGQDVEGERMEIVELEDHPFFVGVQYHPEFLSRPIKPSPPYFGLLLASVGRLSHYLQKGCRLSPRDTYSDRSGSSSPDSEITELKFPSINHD

Row | IC50 | SMILES
1 | ≥ 1000 nM | O=C(NC1(c2csc(NS(=O)(=O)C3CC3)n2)CC1)c1ccc2c[n+]([O-])ccc2c1 [I-11, 6-(1-(2-(cyclopropanesulfonamido)thiazol-4-yl)cyclopropylcarbamoyl)isoquinoline 2-oxide]
2 | < 100 nM | CCOc1cncc(-c2ccc(C(=O)NCc3cc(NS(=O)(=O)C(F)(F)F)ccn3)nc2)n1 [I-23, 5-(6-ethoxypyrazin-2-yl)-N-((4-((trifluoromethyl)sulfonamido)pyridin-2-yl)methyl) picolinamide]
3 | < 100 nM | CCOc1cncc(-c2cnc(C(=O)NC(C)(C)c3cccc(NS(=O)(=O)C(F)F)c3)s2)n1 [I-262, N-{2-[3-(difluoromethanesulfonamido)phenyl]propan-2-yl}-5-(6-ethoxypyrazin-2-yl)-1,3-thiazole-2-carboxamide]
4 | < 100 nM | CCOc1cncc(-c2cnc(C(=O)N[C@@H](C[C@@H]3CCCCN3)c3cc(NS(=O)(=O)C4CC4)ccn3)s2)n1 (single isomer, unassigned) [I-139]
5 | < 100 nM | CCOc1cncc(-c2sc(C(=O)N[C@@H](CC)c3cc(NS(=O)(=O)C4CC4)ccn3)nc2C)n1 [I-219, (S)—N-(1-(4-(cyclopropanesulfonamido)pyridin-2-yl)propyl)-5-(6-ethoxypyrazin-2-yl)-4-methylthiazole-2-carboxamide]
6 | 100 to 1000 nM | Cc1cc2c(-c3cnc(C(=O)NCc4cc(NS(=O)(=O)C5CC5)ccn4)s3)cncn2n1 [I-185]
7 | < 100 nM | CCOc1cncc(-c2cnc(C(=O)N[C@@H](c3cc(NS(=O)(=O)C4CC4)ccn3)[C@H]3C[C@@H](N(C)C)C3)s2)n1 (single isomer, unassigned) [I-108]
8 | ≥ 1000 nM | O=C(NC1(c2csc(NS(=O)(=O)C3CC3)n2)CC1)c1cnc2ccccc2c1 [I-5, N-(1-(2-(cyclopropanesulfonamido)thiazol-4-yl)cyclopropyl)quinoline-3-carboxamide]
9 | < 100 nM | CCOc1cncc(-c2cnc(C(=O)N[C@@H](CCN(C)C)c3cccc(NS(=O)(=O)C4CC4)c3)s2)n1 (single isomer, unassigned) [I-144]
10 | < 100 nM | CCOc1cncc(-c2cnc(C(=O)N[C@H](CCN(C)C)c3cc(NS(=O)(=O)C4CC4)ccn3)s2)n1 [I-189, (R)—N-(1-(4-(cyclopropanesulfonamido)pyridin-2-yl)-3-(dimethylamino)propyl)-5-(6-ethoxypyrazin-2-yl)thiazole-2-carboxamide]
11 | < 100 nM | CCOc1cncc(-c2sc(C(=O)N[C@H](CC)c3cc(NS(=O)(=O)C4CC4)ccn3)nc2C)n1 [I-220, (R)—N-(1-(4-(cyclopropanesulfonamido)pyridin-2-yl)propyl)-5-(6-ethoxypyrazin-2-yl)-4-methylthiazole-2-carboxamide]
12 | 100 to 1000 nM | CCOc1cncc(-c2cnc(C(=O)N3CCC[C@H]3c3cncc(NS(=O)(=O)C4CC4)c3)s2)n1 [I-226, (S)—N-(5-(1-(5-(6-ethoxypyrazin-2-yl)thiazole-2-carbonyl)pyrrolidin-2-yl)pyridin-3-yl)cyclopropanesulfonamide]
13 | < 100 nM | CCOc1cncc(-c2cnc(C(=O)N[C@](C)(COC)c3cc(NS(=O)(=O)C4CC4)ccn3)s2)n1 [I-90, (S)—N-(2-(4-(cyclopropanesulfonamido)pyridin-2-yl)-1-methoxypropan-2-yl)-5-(6-ethoxypyrazin-2-yl)thiazole-2-carboxamide]
14 | 100 to 1000 nM | CCOc1cncc(-c2cnc(C(=O)N[C@@H](CN3CCC3)c3cc(NS(=O)(=O)C4CC4)ccn3)s2)n1 (single isomer, unassigned) [I-221]
15 | ≥ 1000 nM | CCOc1cncc(-c2ccc(C(=O)NC3(c4csc(N(C)S(=O)(=O)C5CC5)n4)CC3)nc2)n1 [I-14, 5-(6-ethoxypyrazin-2-yl)-N-(1-(2-(N-methylcyclopropanesulfonamido)thiazol-4-yl)cyclopropyl)picolinamide]
16 | ≥ 1000 nM | CCOc1cncc(-c2cnc(C(=O)N[C@H](CCN(C)C)c3cccc(NS(=O)(=O)C4CC4)c3)s2)n1 (single isomer, unassigned) [I-143]
17 | < 100 nM | CCOc1cncc(-c2cnc(C(=O)N[C@@H](c3cc(NS(=O)(=O)C4CC4)ccn3)C3CCN(C)CC3)s2)n1 [I-147, (R)—N-((4-(cyclopropanesulfonamido)pyridin-2-yl)(1-methylpiperidin-4-yl)methyl)-5-(6-ethoxypyrazin-2-yl)thiazole-2-carboxamide]
18 | < 100 nM | CCOc1cncc(-c2cnc(C(=O)N3CCOCC3c3cc(NS(=O)(=O)C4CC4)ccn3)s2)n1 (centres unmarked) [I-209, N-(2-{4-[5-(6-ethoxypyrazin-2-yl)-1,3-thiazole-2-carbonyl]morpholin-3-yl}pyridin-4-yl)cyclopropanesulfonamide]
19 | < 100 nM | CCOc1cncc(-c2cnc(C(=O)N3CCC[C@@H]3c3cccc(NS(=O)(=O)C4CC4)n3)s2)n1 [I-230, N-[6-[(2R)-1-[5-(6-ethoxypyrazin-2-yl)-1,3-thiazole-2-carbonyl]pyrrolidin-2-yl]pyridin-2-yl]cyclopropanesulfonamide]
20 | < 100 nM | CCOc1cncc(-c2cnc(C(=O)N[C@H](CCN3CCCC3)c3cc(NS(=O)(=O)C4CC4)ccn3)s2)n1 [I-158, (R)—N-(1-(4-(cyclopropanesulfonamido)pyridin-2-yl)-3-(pyrrolidin-1-yl)propyl)-5-(6-ethoxypyrazin-2-yl)thiazole-2-carboxamide]
21 | ≥ 1000 nM | Cc1cn2cc(-c3ccc(C(=O)NCc4cc(NS(=O)(=O)C5CC5)ccn4)nc3)cnc2n1 [I-31]
22 | ≥ 1000 nM | Cc1c(-c2ccc(C(=O)NC3(c4csc(NS(=O)(=O)C5CC5)n4)CC3)cc2)cnn1C [I-261, N-[1-(2-cyclopropanesulfonamido-1,3-thiazol-4-yl)cyclopropyl]-4-(1,5-dimethylpyrazol-4-yl)benzamide]
23 | ≥ 1000 nM | O=C(NC1(c2csc(NS(=O)(=O)C3CC3)n2)CC1)c1ccc2cnccc2c1 [I-4, N-(1-(2-(cyclopropanesulfonamido)thiazol-4-yl)cyclopropyl)isoquinoline-6-carboxamide]

Reference: patent publication US12331046B2, “CTPS1 inhibitors and uses thereof” (Nimbus Clotho, Inc., priority 2020, dated 2025)
